{"source": "paper PMC5063576", "about": "“High Potency VEGFRs/MET/FMS Triple Blockade by TAS-115 Concomitantly Suppresses Tumor Progression and Bone Destruction in Tumor-Induced Bone Disease Model with Lung Carcinoma Cells” (PLoS ONE, 2016)", "key": {"[1]": {"target": "T1, Recombinant human FMS dephosphorylated with lambda phosphatase (dephospho-rhFMS) (Homo sapiens, UniProt P07333)", "T1 sequence (P07333 538-972)": "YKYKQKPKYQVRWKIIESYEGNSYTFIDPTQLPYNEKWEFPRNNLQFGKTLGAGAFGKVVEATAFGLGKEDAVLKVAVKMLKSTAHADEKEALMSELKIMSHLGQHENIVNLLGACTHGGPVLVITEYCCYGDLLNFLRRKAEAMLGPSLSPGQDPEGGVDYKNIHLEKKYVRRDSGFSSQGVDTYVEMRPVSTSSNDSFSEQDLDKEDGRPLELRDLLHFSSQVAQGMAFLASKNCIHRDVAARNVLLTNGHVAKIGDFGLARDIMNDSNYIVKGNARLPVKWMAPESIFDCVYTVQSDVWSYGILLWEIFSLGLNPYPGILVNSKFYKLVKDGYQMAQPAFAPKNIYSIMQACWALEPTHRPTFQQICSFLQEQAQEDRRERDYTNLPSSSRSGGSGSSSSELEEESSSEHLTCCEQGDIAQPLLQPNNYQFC", "test": "In vitro kinase assay, recombinant dephospho-FMS (LANCE Ultra TR-FRET)", "assay_type": "biochemical", "settings": "100 μM ATP", "procedure": "(§1) Enzyme inhibition studies were performed using LANCE® Ultra TR-FRET assay technology. Briefly, 0.03 μg/mL dephospho-rhFMS and 100 nM ULightTM-poly GT (4:1) (PerkinElmer) were mixed and incubated for 40 min at 25°C in 10 μL of reaction mixture containing 100 μM ATP, 15 mM tris (hydroxymethyl) aminomethane (Tris (pH 7.5)), 0.01% (v/v) Tween 20, 5 mM MgCl2, 2 mM dithiothreitol and various concentrations of the test compound. […] By referring to the TR-FRET signals of positive (no inhibitor) and negative (EDTA was added before the reaction was started) control wells, the percent inhibition of each well was calculated and the half-maximal inhibitory concentration (IC50) value was determined using a four-parameter sigmoidal equation. The assay of MET and VEGFR2 kinase activity was performed as described previously."}, "[2]": {"target": "MET (Homo sapiens, UniProt P08581)", "sequence (P08581 25-1390)": "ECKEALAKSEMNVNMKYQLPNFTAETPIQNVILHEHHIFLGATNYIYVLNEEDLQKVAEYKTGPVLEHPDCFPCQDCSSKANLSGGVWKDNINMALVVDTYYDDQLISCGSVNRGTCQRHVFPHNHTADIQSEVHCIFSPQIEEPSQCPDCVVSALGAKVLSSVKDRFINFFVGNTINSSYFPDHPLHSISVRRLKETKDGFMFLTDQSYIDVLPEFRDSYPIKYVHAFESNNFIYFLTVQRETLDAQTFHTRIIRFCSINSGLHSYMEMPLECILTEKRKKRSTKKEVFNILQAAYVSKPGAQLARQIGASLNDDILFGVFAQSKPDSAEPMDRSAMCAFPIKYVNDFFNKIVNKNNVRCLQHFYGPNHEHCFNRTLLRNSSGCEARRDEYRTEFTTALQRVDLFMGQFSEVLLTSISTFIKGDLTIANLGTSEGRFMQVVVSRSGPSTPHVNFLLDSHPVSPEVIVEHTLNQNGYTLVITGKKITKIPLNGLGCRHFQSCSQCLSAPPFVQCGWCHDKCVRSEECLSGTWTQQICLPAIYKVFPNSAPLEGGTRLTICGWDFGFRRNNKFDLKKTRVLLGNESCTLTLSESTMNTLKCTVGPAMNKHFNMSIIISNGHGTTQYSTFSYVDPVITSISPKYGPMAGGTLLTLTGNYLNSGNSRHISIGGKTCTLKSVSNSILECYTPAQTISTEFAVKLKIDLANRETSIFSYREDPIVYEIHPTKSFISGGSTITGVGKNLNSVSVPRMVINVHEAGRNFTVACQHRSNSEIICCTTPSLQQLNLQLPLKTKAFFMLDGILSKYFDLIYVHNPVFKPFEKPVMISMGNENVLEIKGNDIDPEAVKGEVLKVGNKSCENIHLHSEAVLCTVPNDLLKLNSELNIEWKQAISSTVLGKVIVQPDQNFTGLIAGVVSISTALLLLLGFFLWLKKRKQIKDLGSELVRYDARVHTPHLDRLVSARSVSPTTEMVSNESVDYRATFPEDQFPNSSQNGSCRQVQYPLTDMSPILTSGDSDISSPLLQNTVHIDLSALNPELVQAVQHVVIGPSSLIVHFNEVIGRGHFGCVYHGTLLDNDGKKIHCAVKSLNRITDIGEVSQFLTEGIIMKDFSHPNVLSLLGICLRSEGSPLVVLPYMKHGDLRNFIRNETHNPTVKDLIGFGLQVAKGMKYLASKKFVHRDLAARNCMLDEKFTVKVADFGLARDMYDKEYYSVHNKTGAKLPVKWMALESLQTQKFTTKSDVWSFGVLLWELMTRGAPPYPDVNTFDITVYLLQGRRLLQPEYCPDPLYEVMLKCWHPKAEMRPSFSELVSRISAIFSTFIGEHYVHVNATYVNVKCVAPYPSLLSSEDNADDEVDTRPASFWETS", "test": "In vitro kinase assay, MET", "assay_type": "biochemical", "settings": "assay as described previously [16]", "procedure": "as §1"}, "[3]": {"test_system": "A549-Luc-BM1-implanted tibia", "test": "Bone morphometrical analyses by micro-CT", "assay_type": "in vivo, BALB/c nude mice", "settings": "micro-CT after 4 weeks dosing; TAS-115 200, cabozantinib 15, sunitinib 40, crizotinib 100 mg/kg oral; vs control", "procedure": "On day 29, the mice were euthanized by cervical dislocation under isoflurane anesthesia, and subsequently the A549-Luc-BM1-implanted tibia was removed and was fixed in 4% paraformaldehyde solution. Micro-CT imaging was performed by using Rm_CT2 (Rigaku corporation, Tokyo, Japan) with the following parameters: 90 kV, 160 μA, 3 min exposure, 10 mm field of view (20 μm voxel size). After scanning, 3D reconstruction was performed to produce a series of cross-sectional images by using specific software (3D Viewer Version 3.00.01, Rigaku corporation). In addition, bone mineral density (BMD) and 3D morphometrical primary parameters, including total volume (TV) and bone volume (BV), were calculated by using bone microstructure software (TRI/3D-BON-FCS64, Ratoc System Engineering, Tokyo, Japan). Volumetric BMD (vBMD), which has been reported to be a good index of osteoporosis, was calculated from primary parameters using the following formula: vBMD = BMD × BV / TV."}, "[4]": {"test_system": "A549-Luc-BM1-implanted tibiae", "test": "CD31 staining, microvessel density in bone lesion", "assay_type": "in vivo, BALB/c nude mice", "settings": "2 weeks oral; TAS-115 100 mg/kg, cabozantinib 15, crizotinib 100, sunitinib 40 mg/kg; vs control", "procedure": "(§2) On day 15, the mice were euthanized by cervical dislocation under isoflurane anesthesia, and their tibiae were collected. For CD31 staining, frozen sections (3 μm thick) were prepared using Kawamoto’s film method. Purified Rat Anti-Mouse CD31 (1:100, BD Pharmingen^TM) was detected using Simple Stain^TM Mouse MAX PO (Rat) (Nichirei) and 3,3’-diaminobenzidine (Dako, Glostrup, Denmark). For Ki-67 and TRAP staining, formalin-fixed paraffin-embedded sections (2 μm thick) were prepared. Anti-human Ki-67 Rabbit Monoclonal Antibody (1:50, Epitomics) was detected using the EnVisionTM^+ System (Dako). TRAP staining was performed using the TRAP/ALP Stain Kit (Wako Pure chemical Industries, Ltd.). To quantify each staining, whole slides were scanned under 20× magnification with the Aperio Scan-Scope XT Slide Scanner (Aperio Technologies, Inc., CA). To quantify CD31-positive microvessels as microvessel density (MVD, number/mm^2), four fields of tumor area per section excluding bone and necrotic tissue were analyzed by using Image-Pro Plus (Media Cybernetics, Inc., Carlsbad, CA). The mean values of the four areas were considered as the MVD of each animal. […] Ki-67-positive cells and total tumor cells were counted by using Image-Pro Plus. The Ki-67 index is expressed as a percentage (the number of Ki-67-positive tumor cells / the total number of the tumor cells × 100). The numbers of TRAP-positive osteoclasts were counted, and are expressed as the TRAP-positive osteoclast labeling index, (the number of TRAP-positive cells / the length of the boundary between tumor and trabecular bone (number/mm)). Cells that were TRAP-positive, had more than one nucleus, and were found on the surface of the bone, were identified as osteoclasts. The boundary length was calculated by Image-Pro Plus. All histopathological analyses were conducted in a blinded manner."}, "[5]": {"test_system": "TRAP-positive osteoclasts at tumor-bone boundary", "test": "TRAP staining of A549-Luc-BM1-implanted tibiae, osteoclast number", "assay_type": "in vivo, BALB/c nude mice", "settings": "2 weeks oral; TAS-115 200, cabozantinib 15, sunitinib 40, crizotinib 100 mg/kg, combination; vs control", "procedure": "as §2, with “CA).” for “CA). The mean values of the four areas were considered as the MVD of each animal.”, “The numbers of TRAP-positive osteoclasts were counted, and are expressed as the TRAP-positive osteoclast labeling index, (the number of TRAP-positive cells / the length of the boundary between tumor and trabecular bone (number/mm)). Cells that were TRAP-positive, had more than one nucleus, and were found on the surface of the bone, were identified as osteoclasts.” left out, “All histopathological analyses were conducted in a blinded manner.” left out"}}}
{"compound": "CNC(=O)c1cc2c(Oc3ccc(NC(=S)NC(=O)Cc4ccccc4)cc3F)ccnc2cc1OC", "note": "[TAS-115, 4-[2-fluoro-4-[[[(2-phenylacetyl)amino]thioxomethyl]amino]-phenoxy] -7-methoxy-N-methyl-6-quinolinecarboxamide]", "values": [{"measurement": "IC50", "setting": "[1]", "value": 15, "unit": "nM"}, {"measurement": "IC50", "setting": "[2]", "value": 32, "unit": "nM"}, {"measurement": "A549-Luc-BM1-induced changes in bone parameters (BV, TV, BMD, vBMD)", "setting": "[3]", "value": "significantly suppressed all of the changes"}, {"measurement": "microvessel density (MVD) within the tumor area in the bone lesion", "setting": "[4]", "value": "significantly reduced"}, {"measurement": "number of TRAP-positive osteoclasts at tumor-bone boundary", "setting": "[5]", "value": "significantly decreased"}]}
